# Measured values as given in patent US8759534B2, “Trimethine cyanine and its use” (Orgchem Technologies, Inc., priority 2011, dated 2014).
# Assay: Solubility in TFP
# Type: physicochemical
# Details: solvent TFP (2,2,3,3-tetrafluoro-1-propanol)
row,Compound,Solubility (in TFP)
1,CCCN1/C(=C/C=C/C2=[N+](CCC(C)C)c3ccc4ccccc4c3C2(C)CC=CCC2(C)C(/C=C/C=C3/N(CCC)c4ccccc4C3(C)C)=[N+](CCC(C)C)c3ccc4ccccc4c32)C(C)(C)c2ccccc21 (centres unmarked) [Compound No. 34],4.17%
2,CN1/C(=C/C=C/C2=[N+](C)c3ccc4ccccc4c3C2(C)Cc2ccc(Oc3ccc(CC4(C)C(/C=C/C=C5/N(C)c6ccc7ccccc7c6C5(C)Cc5ccccc5)=[N+](C)c5ccc6ccccc6c54)cc3)cc2)C(C)(Cc2ccccc2)c2c1ccc1ccccc21 (centres unmarked) [Compound No. 1],4.8%
3,CN1/C(=C/C=C/C2=[N+](Cc3ccccc3)c3ccc4ccccc4c3C2(C)CC=CCC2(C)C(/C=C/C=C3/N(C)c4ccc5ccccc5c4C3(C)Cc3ccccc3)=[N+](Cc3ccccc3)c3ccc4ccccc4c32)C(C)(Cc2ccccc2)c2c1ccc1ccccc21 (centres unmarked) [Compound No. 29],5.3%
4,CN1/C(=C/C=C/C2=[N+](C)c3ccc4ccccc4c3C2(C)CC=CCC2(C)C(/C=C/C=C3/N(C)c4ccc5ccccc5c4C3(C)Cc3ccccc3)=[N+](C)c3ccc4ccccc4c32)C(C)(Cc2ccccc2)c2c1ccc1ccccc21 (centres unmarked) [Compound No. 26],5.3%
5,CCN1/C(=C/C=C/C2=[N+](C)c3ccc4ccccc4c3C2(C)Cc2ccc(Cc3ccc(CC4(C)C(/C=C/C=C5/N(CC)c6ccc7ccccc7c6C5(C)Cc5ccccc5)=[N+](C)c5ccc6ccccc6c54)cc3)cc2)C(C)(Cc2ccccc2)c2c1ccc1ccccc21 (centres unmarked) [Compound No. 13],3.6%
